Measurements as given in patent US7505101B2, “Liquid crystal display” (Fujifilm Corporation, priority 2004, dated 2009).

Test: octanol-water partition coefficient (Log P value)
Assay type: physicochemical
Conditions: octanol-water distribution coefficient
Description: In the preparation of the cellulose acylate film according to the invention, among the aforementioned compound for suppressing an alignment of cellulose acylate in the film along the in-plane direction and the direction of film thickness thereby sufficiently reducing Rth, preferred is a compound having an octanol-water distribution coefficient (log P value) within a range of from 0 to 7. […] Also, a compound having a log P value or 0 or more has a lower hydrophilicity and thus can suppress deterioration of the water resistance of the cellulose acylate film. The log P value is more preferably within a range of from 1 to 6, and particularly preferably 1.5 to 5. The octanol-water distribution coefficient (log P value) can be measured by a flask […] method described in Japan Industrial Standards (JIS) Z7260-107 (2000). The octanol-water distribution coefficient (log P value) may also be estimated, instead of an actual measurement, by a calculational chemical method or an empirical method. […]

Cc1ccc(S(=O)(=O)Nc2ccccc2)cc1 [A-19]
logP: 2.9

CCCCCCCCOc1ccc(C(=O)c2ccccc2)c(O)c1 [UV-102]
logP: 5.6
